{"source": "ChEMBL document CHEMBL4311972", "about": "“Discovery of a benzothiophene-flavonol halting miltefosine and antimonial drug resistance in Leishmania parasites through the application of medicinal chemistry, screening and genomics” (Eur J Med Chem, 2019)", "key": {"[1]": {"system": "Leishmania infantum", "assay": "Antileishmanial activity against Leishmania infantum amastigotes infected in Syrian hamster assessed as reduction in parasite load in liver at 20 mg/kg/day, po for 10 days relative to control", "type": "functional", "settings": "240 h"}, "[2]": {"assay": "Toxicity in Syrian hamster infected with Leishmania infantum BCN150 promastigotes assessed as distress effect at 20 mg/kg/day, po for 10 days measured daily", "type": "organism-based, Mesocricetus auratus", "settings": "in vivo, 240 h"}, "[3]": {"system": "Leishmania donovani", "assay": "(§1) Antileishmanial activity against Leishmania donovani 1SR promastigotes assessed as parasite growth at IC50 concentration incubated with compound for 3 days under selective pressure and selection cycle repeated 10 times for total of 33 days and measured at 3 to 33 days of selection", "type": "functional, organism-based"}, "[4]": {"assay": "Toxicity in Syrian hamster infected with Leishmania infantum BCN150 promastigotes assessed as effect on alkaline phosphatase level at 20 mg/kg/day, po for 10 days measured after the last treatment", "type": "organism-based, Mesocricetus auratus", "settings": "in vivo, 240 h"}, "[5]": {"assay": "Toxicity in Syrian hamster infected with Leishmania infantum BCN150 promastigotes assessed as effect on AST level at 20 mg/kg/day, po for 10 days measured after the last treatment", "type": "organism-based, Mesocricetus auratus", "settings": "in vivo, 240 h"}, "[6]": {"assay": "Toxicity in Syrian hamster infected with Leishmania infantum BCN150 promastigotes assessed as effect on plasma urea level at 20 mg/kg/day, po for 10 days measured after the last treatment", "type": "organism-based, Mesocricetus auratus", "settings": "in vivo, 240 h"}, "[7]": {"assay": "Toxicity in Syrian hamster infected with Leishmania infantum BCN150 promastigotes assessed as liver lesions at 20 mg/kg/day, po for 10 days", "type": "organism-based, Mesocricetus auratus", "settings": "in vivo, 240 h"}, "[8]": {"target": "T1, Albumin (Bos taurus, UniProt P02769)", "T1 sequence (P02769 whole entry)": "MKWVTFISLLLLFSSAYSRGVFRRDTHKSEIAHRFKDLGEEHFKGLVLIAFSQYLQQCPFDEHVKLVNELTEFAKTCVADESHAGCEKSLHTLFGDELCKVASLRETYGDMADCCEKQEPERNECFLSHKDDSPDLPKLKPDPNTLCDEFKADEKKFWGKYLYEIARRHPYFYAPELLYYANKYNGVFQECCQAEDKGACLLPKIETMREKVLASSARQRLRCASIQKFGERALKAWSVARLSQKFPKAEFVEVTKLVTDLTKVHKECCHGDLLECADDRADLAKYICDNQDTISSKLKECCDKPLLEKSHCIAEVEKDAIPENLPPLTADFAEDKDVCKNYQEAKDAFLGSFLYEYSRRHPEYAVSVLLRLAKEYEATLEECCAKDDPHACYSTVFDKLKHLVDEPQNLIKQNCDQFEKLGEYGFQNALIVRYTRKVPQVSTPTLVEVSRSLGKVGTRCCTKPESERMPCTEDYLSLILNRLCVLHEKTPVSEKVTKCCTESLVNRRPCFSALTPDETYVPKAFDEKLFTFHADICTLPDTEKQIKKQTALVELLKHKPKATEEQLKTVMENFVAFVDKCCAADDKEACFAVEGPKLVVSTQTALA", "assay": "Binding affinity to bovine serum albumin by fluorescence based assay", "type": "ADME"}, "[9]": {"assay": "Chemical stability of compound in PBS at 20 uM at pH 8 exposed to air bubbling followed by supplementation with human serum albumin measured for 6 hrs by UV-vis spectrophotometry analysis", "type": "physicochemical"}, "[10]": {"assay": "Chemical stability of compound in DMSO at 60 uM assessed as drug degradation measured at room temperature in dark after 1 day by UV-vis spectrophotometric analysis", "type": "physicochemical", "settings": "read-out: Drug degradation"}, "[11]": {"assay": "Plasma concentration in syrian hamster infected with Leishmania infantum BCN150 promastigote at 40 mg/kg/day, po for 10 days formulated with 50% v/v cyclodextrin", "type": "ADME, organism-based, Mesocricetus auratus"}, "[12]": {"assay": "Plasma concentration in syrian hamster infected with Leishmania infantum BCN150 promastigote at 40 mg/kg/day, po for 10 days formulated with 30% v/v cyclodextrin", "type": "ADME, organism-based, Mesocricetus auratus"}, "[13]": {"system": "Leishmania infantum", "assay": "Antileishmanial activity against Leishmania infantum amastigotes infected in Syrian hamster assessed as parasite load within spleen at 40 mg/kg/day, po for 10 days formulated with 30% v/v cyclodextrin (reference value: 9874032.937 +/- 3482270.184/g)", "type": "functional"}, "[14]": {"assay": "Cytotoxicity against human THP1 cells by MTT assay", "type": "cell-based, THP-1"}, "[15]": {"system": "Leishmania donovani", "assay": "Antileishmanial activity against antimony resistant Leishmania donovani BPK190 promastigotes infected in C57BL/6 mouse bone marrow-derived macrophages assessed as reduction in parasite load at 10 uM treated with compound at 24 hrs post-infection measured after 72 hrs post infection by q-PCR analysis relative to control", "type": "functional"}, "[16]": {"assay": "Toxicity in Syrian hamster infected with Leishmania infantum BCN150 promastigotes assessed as spleen weight at 40 mg/kg/day, po for 10 days formulated with 30% v/v cyclodextrin (reference value: 0.183 +/- 0.04 g)", "type": "organism-based, Mesocricetus auratus", "settings": "in vivo, 240 h"}, "[17]": {"assay": "Toxicity in Syrian hamster infected with Leishmania infantum BCN150 promastigotes assessed as adverse effects at 20 mg/kg/every 12 hrs, po for 10 days formulated with 8% v/v DMSO measured daily", "type": "organism-based, Mesocricetus auratus", "settings": "in vivo"}, "[18]": {"assay": "Toxicity in Syrian hamster infected with Leishmania infantum BCN150 promastigotes assessed as effect on ALT level at 40 mg/kg/day, po for 10 days formulated with 30 to 50% v/v cyclodextrin measured after the last treatment", "type": "organism-based, Mesocricetus auratus", "settings": "in vivo, 240 h"}, "[19]": {"assay": "Toxicity in Syrian hamster infected with Leishmania infantum BCN150 promastigotes assessed as effect on plasma urea level at 40 mg/kg/day, po for 10 days formulated with 30 to 50% v/v cyclodextrin measured after the last treatment", "type": "organism-based, Mesocricetus auratus", "settings": "in vivo, 240 h"}, "[20]": {"system": "Leishmania donovani", "assay": "as §1, with “of selection relative to control” for “of selection”", "type": "functional"}, "[21]": {"assay": "Cmax in BALB/c mouse at 1 mg/kg, iv measured upto 72 hrs by snapshot method", "type": "ADME, organism-based", "design": "dose 1 mg/kg, route intravenous", "settings": "in vivo"}, "[22]": {"assay": "Plasma concentration in syrian hamster infected with Leishmania infantum BCN150 promastigote at 40 mg/kg/day, po for 10 days formulated with 8% v/v DMSO", "type": "ADME, organism-based, Mesocricetus auratus"}, "[23]": {"system": "Leishmania infantum", "assay": "Anti-leishmanial activity against Leishmania infantum BCN150 promastigotes infected in Syrian hamster assessed as decrease in anti-leishmanial IgG level at 40 mg/kg/day, po for 10 days formulated with […] v/v DMSO by ELISA", "type": "functional, organism-based"}, "[24]": {"assay": "Toxicity in Syrian hamster infected with Leishmania infantum BCN150 promastigotes assessed as effect on alkaline phosphatase level at 40 mg/kg/day, po for 10 days formulated with 8% v/v DMSO measured after the last treatment", "type": "organism-based, Mesocricetus auratus", "settings": "in vivo, 240 h"}, "[25]": {"system": "WI-38", "assay": "Cytotoxicity against human WI38 cells incubated for 48 hrs by Celltiter-Glo luminescence assay", "type": "cell-based", "settings": "wi-38, 48 h"}, "[26]": {"target": "T2, Albumin (Homo sapiens, UniProt P02768)", "T2 sequence (P02768 whole entry)": "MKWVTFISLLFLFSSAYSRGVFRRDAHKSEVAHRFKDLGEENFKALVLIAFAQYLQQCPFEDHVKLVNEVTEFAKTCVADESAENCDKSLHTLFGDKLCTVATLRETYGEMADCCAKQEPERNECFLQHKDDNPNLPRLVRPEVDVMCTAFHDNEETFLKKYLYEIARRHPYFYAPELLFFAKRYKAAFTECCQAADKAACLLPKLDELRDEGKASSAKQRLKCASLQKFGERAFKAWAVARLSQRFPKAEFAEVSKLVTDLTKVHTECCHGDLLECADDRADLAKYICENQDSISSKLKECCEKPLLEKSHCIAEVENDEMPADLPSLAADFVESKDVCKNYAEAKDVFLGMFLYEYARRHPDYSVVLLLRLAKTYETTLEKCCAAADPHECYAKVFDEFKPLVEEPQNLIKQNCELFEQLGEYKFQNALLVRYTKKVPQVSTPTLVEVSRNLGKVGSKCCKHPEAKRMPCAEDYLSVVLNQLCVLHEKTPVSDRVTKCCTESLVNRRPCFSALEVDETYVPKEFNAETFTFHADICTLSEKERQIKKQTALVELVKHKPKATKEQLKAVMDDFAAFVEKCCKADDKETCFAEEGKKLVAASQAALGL", "assay": "Binding affinity to human serum albumin in phosphate buffer assessed as increase in emission intensity at 530-550 nm at 5 uM measured at pH 8 at albumin concentration of 2 uM by fluorescence emission spectrum analysis", "type": "ADME", "settings": "isolated protein, pH 8, 5 µM"}, "[27]": {"target": "T2, Albumin", "assay": "Binding affinity to human serum albumin in phosphate buffer assessed as increase in emission anisotropy at 530 nm at 5 uM measured at pH 8 by fluorescence emission spectrum analysis", "type": "ADME", "settings": "isolated protein"}, "[28]": {"target": "T1, Albumin", "assay": "Binding affinity to bovine serum albumin in phosphate buffer assessed as compound lifetime at 530 nm at 5 uM measured at pH 8 by fluorescence emission spectrum analysis", "type": "ADME", "settings": "cattle, isolated protein"}, "[29]": {"target": "T3, Beta-casein (Bos taurus, UniProt P02666)", "T3 sequence (P02666 whole entry)": "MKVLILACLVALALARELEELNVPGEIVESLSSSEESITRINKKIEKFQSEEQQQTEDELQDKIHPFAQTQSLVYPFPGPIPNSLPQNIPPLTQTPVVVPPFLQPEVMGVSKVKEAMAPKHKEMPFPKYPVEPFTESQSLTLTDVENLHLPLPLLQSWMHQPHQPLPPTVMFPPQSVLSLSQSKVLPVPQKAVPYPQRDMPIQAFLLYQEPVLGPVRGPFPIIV", "assay": "Binding affinity to bovine milk beta-casein in phosphate buffer assessed as increase in emission intensity at 530 nm at 5 uM measured at pH 8 by fluorescence emission spectrum analysis", "type": "ADME", "settings": "cattle"}, "[30]": {"target": "T3, Beta-casein", "assay": "Binding affinity to bovine milk beta-casein in phosphate buffer assessed as compound lifetime at 530 nm at 5 uM measured at pH 8 by fluorescence emission spectrum analysis", "type": "ADME", "settings": "cattle"}, "[31]": {"assay": "Toxicity in Syrian hamster infected with Leishmania infantum BCN150 promastigotes assessed as liver lesions at 40 mg/kg/day, po for 10 days formulated with 8% v/v DMSO measured under necropsy", "type": "organism-based, Mesocricetus auratus", "settings": "in vivo, 240 h"}, "[32]": {"assay": "Stability of the compound in phosphate buffer assessed as compound abundance at 450 nm at 5 uM measured at pH 8 by fluorescence emission spectrum analysis", "type": "physicochemical", "settings": "read-out: Stability"}}, "note": "Where “and” joins values, the source holds several entries; their conditions need not be identical. Equal values may be shown once. Calls of active or inactive are those of the source. The calls are words filed in the database; no cut-off is given here.", "data": [{"smiles": "CCCCCCCCCCCCCCCCOP(=O)([O-])OCC[N+](C)(C)C", "note": "[MILTEFOSINE]", "values": [{"measurement": "inhibition in vivo at 20 mg/kg/day", "setting": "[1]", "result": 81.2, "unit": "%"}, {"measurement": "Activity", "setting": "[2]", "result": "Toxic"}, {"measurement": "inhibition", "setting": "[3]", "result": "inactive"}, {"measurement": "Activity", "setting": "[4]", "result": "Non-Toxic"}, {"measurement": "Activity", "setting": "[5]", "result": "Non-Toxic"}, {"measurement": "Activity", "setting": "[6]", "result": "Non-Toxic"}, {"measurement": "Activity", "setting": "[7]", "result": "Non-Toxic"}]}, {"smiles": "COc1ccc2oc(-c3csc4ccccc34)c(O)c(=O)c2c1", "values": [{"measurement": "Kd", "setting": "[8]", "result": "> 12", "unit": "µM"}, {"measurement": "Stability", "setting": "[9]", "result": "Stable"}, {"measurement": "degraded at 24 h, 60 µM", "setting": "[10]", "result": 1, "unit": "%"}, {"measurement": "concentration at 240 h", "setting": "[11]", "result": 38, "unit": "nM"}, {"measurement": "concentration at 240 h", "setting": "[12]", "result": 76, "unit": "nM"}, {"measurement": "Activity", "setting": "[13]", "result": 7030915.598, "unit": "g⁻¹"}, {"measurement": "CC50", "setting": "[14]", "result": "25 to 50", "unit": "µM"}, {"measurement": "inhibition at 10 µM", "setting": "[15]", "result": 69, "unit": "%"}, {"measurement": "Activity", "setting": "[16]", "result": 0.719, "unit": "g"}, {"measurement": "Activity", "setting": "[17]", "result": "Non-Toxic"}, {"measurement": "Activity", "setting": "[18]", "result": "Non-Toxic"}, {"measurement": "Activity", "setting": "[19]", "result": "Non-Toxic"}, {"measurement": "Activity", "setting": "[20]", "result": "<50", "unit": "%"}, {"measurement": "Cmax", "setting": "[21]", "result": "4.76 µM and 1540 ng/mL"}, {"measurement": "concentration at 240 h", "setting": "[22]", "result": 44, "unit": "nM"}, {"measurement": "inhibition", "setting": "[23]", "result": "Active"}, {"measurement": "Activity", "setting": "[24]", "result": "Non-Toxic"}, {"measurement": "Activity", "setting": "[25]", "result": "Non-Toxic"}, {"measurement": "Activity", "setting": "[26]", "result": 50, "unit": "%"}, {"measurement": "Activity", "setting": "[27]", "result": "Active"}, {"measurement": "Time", "setting": "[28]", "result": 5.5, "unit": "nanoseconds"}, {"measurement": "Activity", "setting": "[29]", "result": "Active"}, {"measurement": "Time", "setting": "[30]", "result": 5.5, "unit": "nanoseconds"}, {"measurement": "Activity", "setting": "[31]", "result": "Non-Toxic"}, {"measurement": "remaining at 5 µM", "setting": "[32]", "result": "90 to 95", "unit": "%"}]}]}
